Experiment [1] concerns Mus musculus. The experiment is described as follows: Antiinflammatory activity in albino mouse assessed as inhibition of carrageenan-induced paw edema at 100 mg/kg, po administered 1 hr before carrageenan challenge measured after 3 hrs. The format is functional. (In general: In the carrageenan paw model, swelling and tenderness develop within hours.)
The test system of experiment [2] is Mus musculus. Kind of experiment: Antiinflammatory activity in albino mouse assessed as inhibition of carrageenan-induced paw edema at 80 mg/kg, ip administered 1 hr before carrageenan challenge measured after 3 hrs. To be noted: route intraperitoneal. The format is functional.
Experiment [3] concerns Mus musculus. The experiment is described as follows: Antiinflammatory activity in albino mouse assessed as inhibition of carrageenan-induced paw edema at 75 mg/kg, ip administered 1 hr before carrageenan challenge measured after 3 to 7 hrs. The experiment is classed as functional. To be noted: route intraperitoneal.
Experiment [4] relates to Mus musculus. The experiment is described as follows: Antiinflammatory activity in albino mouse assessed as inhibition of carrageenan-induced paw edema at 250 mg/kg, po administered 1 hr before carrageenan challenge measured after 3 hrs. The format is functional.
The test system of experiment [5] is Mus musculus. Kind of experiment: Antiinflammatory activity in po dosed albino mouse assessed as inhibition of carrageenan-induced paw edema administered 1 hr before carrageenan challenge measured. The format is functional, organism-based.
The subject of experiment [6] is Mus musculus. The experiment is described as follows: Antiinflammatory activity in albino mouse assessed as inhibition of carrageenan-induced paw edema at 125 mg/kg, po administered 1 hr before carrageenan challenge measured after 3 to 7 hrs. The format is functional, organism-based. Also on record: dose 125 mg/kg.

Structures are written as SMILES. Activity calls are given as the source filed them. No cut-off for these calls is given here.

Consider `CCCCC1C(=O)N(c2ccccc2)N(c2ccccc2)C1=O` [PHENYLBUTAZONE], for which the inhibition in vivo at 100 mg/kg in the experiment on Mus musculus [1] was 47.7%.

In the case of `C=C[C@@]1(CO)CC[C@H]2[C@]3(C)CCCC(C)(C)[C@H]3CC[C@]2(C)O1`, the inhibition in vivo at 80 mg/kg with Mus musculus [2] was found to be 63.5%. The inhibition in vivo at 75 mg/kg with Mus musculus [3] is 60.1%. The inhibition in vivo at 250 mg/kg with Mus musculus [4] turned out to be 55.8%. The Activity entry in the experiment on Mus musculus [5] is “Dose-dependent effect”. Moreover, the result with Mus musculus [6] was Active.

Broadly, the inhibition in vivo is the relative decrease from the control value, in per cent.

The values above are taken from ChEMBL document CHEMBL1147310, “Anti-inflammatory compounds from Sideritis javalambrensis n-hexane extract” (1989).
